# Assay results taken from patent US20240000754A1, “METHODS OF TREATMENT OF LIVER FAILURE” (GENFIT, priority 2020, published 2024).
# What was measured:
# [1] = tested on: rats with CCl4+LPS-induced ACLF; experiment: Example 8: renal function markers in CCl4+LPS-induced ACLF in rats; format: in vivo; settings: 15 weeks CCl4 + LPS, NTZ 50 mg/kg BID 3 days, 24 h after LPS
# Experimental: Cirrhosis decompensation often associates with alterations of kidney functions. […] Briefly, ACLF was induced by lipopolysaccharide (LPS) injection in rats with advanced liver fibrosis/cirrhosis induced by repeated carbon tetrachloride (CCl4) administrations for 15 weeks.
# The protocol study included 4 phases: • 1) Pre-sensitization phase: phenobarbital (P5178, Sigma Aldrich) was added to the drinking water ([…]) of 32 4-week-old male Sprague-Dawley rats (˜200 gr, Janvier Lab) for 2 weeks in order to activate cytochrome enzymes that metabolize CCl4. • 2) Induction of liver fibrosis: chronic liver damages were induced by repeated (twice a week) oral CCl4 (ref: 289116, Sigma Aldrich; diluted in olive oil) administrations (increasing doses starting with 0.10 ml/kg, adding 0.05-0.10 ml/kg at each administration to reach 0.85 ml/kg at 7 weeks and thereafter) for up to 15 weeks, with final doses as follows:
# • 3) Treatment phase: after 15 weeks of CCl4 administration, CCl4 gavage was stopped one week before LPS administration.
# During the first hours following LPS administration, each animal was continuously observed in order to assess the degree of severity of the inflammatory response and pain. The appearance of the animal (change in fur, skin color), the degree of activity and vigilance (response to a stimulus, opening of the eyelids, activity . . . ), gait and attitude were monitored. Any animal showing evident signs of suffering and close to death was euthanized. […] All surviving animals were euthanized 24 h after LPS challenge for plasma and tissue analyses. […]
# Renal injury was evaluated by plasma creatinine, urea and cystatin C concentrations. Plasma creatinine and urea concentrations were measured using the appropriate Randox kits (CR 8316, UR 8334, respectively) for Daytona plus automate (Randox, cat #BR 8377) using the manufacturer instructions. Plasma cystatin C concentration was determined by ELISA (Mouse/Rat Cystatin C Immunoassay Quantikine® ELISA, MSCTC0, R&D Systems).
# [2] = tested on: hepatic transcriptome of mice; experiment: Hepatic transcriptomic analysis (RNA-seq) in CDAA/c diet-fed mice treated with NTZ; format: in vivo; settings: NTZ 100 mg/kg/day versus CDAA/c alone, adjusted p=2.6×10-13
# Experimental: Liver injury was induced in 5-6 week-old male C57Bl/6 mice (Janvier Labs, France) by feeding them a cholesterol (1%) supplemented choline-deficient L-amino acid-defined diet (CDAA/c) (Ssniff, Germany) for 12 weeks (n=12). Some animals received from day 1 and throughout the study CDAA/c diet supplemented with NTZ (Interchim, France) (100 mg/kg/day) (n=8). Mice receiving choline supplemented L-amino acid-defined (CSAA) diet served as additional controls (n=6).
# Total RNA was isolated from mice livers using Nucleospin® 96 RNA kit (ref 740709.4, Macherey Nagel, France) (n=5). Upon measurement of RNA samples concentration by Multiskan™ GO spectrophotometer (Thermo Scientific, France), the quality was assessed using 2100 Bioanalyser from Agilent (USA). […]
# Then reads were aligned on the genome reference (Mus musculus GRCm38.90—GenBank assembly accession GCA_000001635.2) with rnacocktail using hisat2 v.2.1.0 as aligner with default parameters (Sahraeian et al. Nature communications 2017). […]
# To identify differentially expressed genes (DE genes), we used R (version 3.4.3) and the DESEq2 library (v. 1.18.1). […] Briefly, the count matrix produced by FeatureCounts was analyzed by the DESeqDataSetFromMatrix( ) function followed by the DEseq( ) function from the DESeq2 library. […]
# [3] = tested on: rats with BDL+LPS-induced ACLF; experiment: Brain edema in BDL+LPS-induced ACLF in rats; format: in vivo; settings: LPS 1 μg/kg i.p., NTZ 100 mg/kg gavage just before LPS, 3 hours post-LPS
# Experimental: BDL surgery was performed on 37 Sprague Dawley rats weighing approximately 270 g at Charles River laboratory (France). After anesthesia with isoflurane (Vetflurane, Alcyon, France), and cutaneous application of 2% lidocaine (Alcyon), a median laparotomy was performed to expose the liver and duodenum. The main bile duct was identified and dissected. After that, the bile duct was ligated in two parts: a first ligation was made in the middle of the bile duct, and the second ligation was made above the entrance of the pancreatic duct. The bile duct was then cut in the middle, to avoid recanalization.
# The animals were then transferred to Genfit's animal facility (France) after a minimum of 5 days of recovery post-surgery. […] Unoperated animals were included in the study as healthy controls.
# Twenty-two days after BDL surgery, acute decompensation was induced by intraperitoneal administration of 1 μg/kg LPS (Escherichia coli O111:64, Sigma-Aldrich, Germany). Four rats with BDL received phosphate buffer saline (PBS, Fisher Scientific, USA) instead of LPS to be used as BDL controls. Each animal was continuously observed following LPS injection in order to assess the degree of severity of the inflammatory response and pain. […]
# [4] = tested on: mice with acetaminophen (APAP) intoxication; experiment: Acetaminophen-induced acute liver failure in mice; format: in vivo; settings: APAP 300 mg/kg i.p., NTZ 50 mg/kg gavage 30 minutes before, 6 hours after APAP
# Experimental: Acute liver failure was induced by administration of toxic dose of acetaminophen (APAP) in mice. After a 5-day acclimation period, 8 week-old C57BL/6J male mice (Janvier, France) were stratified into 3 groups of 10 mice according to their body weight. All mice were fasted overnight before the administration of 300 mg/kg APAP by intraperitoneal injection. […] Mice had free access to food and water right after APAP injection. Six hours after APAP injection, blood was collected in all mice on heparin by retro-orbital sinus punction under anesthesia. Liver injury was assessed by plasma aspartate aminotransferase (AST) determined using a Horiba Pentra 400 machine and related Pentra assay kit (Horiba France SAS, France). Animals were sacrificed 24 hours post-APAP administration by cervical dislocation, exsanguinated with saline and liver samples were collected and weighed.
# [5] = tested on: HepG2 cells; experiment: NH4Cl-induced mortality in HepG2 cells (CytoTox-Glow dead cell protease activity); format: cell-based, human; settings: HepG2, NTZ 0-5 μM, 60 mM and 120 mM NH4Cl, 14 hours
# Experimental: After cell adherence (10 hours), cells were washed with PBS and were incubated in the presence of 0, 60, or 120 mM of NH4Cl (Fluka, France) in DMEM without L-Glutamine and FBS for 14 hours.
# Cytotoxicity was measured using CytoTox-Glow™ assay (#G9291, Promega, USA). Briefly, 100 μL of reagent was added per well, and the plates were incubated in the dark at room temperature for 15 min. The CytoTox-Glow™ Assay is a luminescent cytotoxicity assay that measures the relative number of dead cells in cell populations. Luminescence was measured using a Spark microplate reader (#30086376, Tecan, USA). The amount of luminescence (RLU) directly correlates with the percentage of cells undergoing cytotoxic stress.
# [6] = tested on: rats with BDL+LPS-induced ACLF; experiment: Kidney function in BDL+LPS-induced ACLF in rats; format: in vivo; settings: NTZ 100 mg/kg gavage, 3 hours post-LPS
# Experimental: BDL surgery of rats and acute decompensation were performed as in the previous example.
# Renal injury was evaluated by serum cystatin C concentrations determined by ELISA (Mouse/Rat Cystatin C Immunoassay Quantikine® ELISA, MSCTC0, R&D Systems).
# [7] = tested on: rats with CCl4+LPS-induced ACLF; experiment: Example 9: CCl4+LPS-induced acute-on-chronic liver failure in rats; format: in vivo
# Experimental: This study included 4 phases: • 1) Pre-sensitization phase: phenobarbital ([…]) (ref P5178-25G, Sigma-Aldrich) was added to the drinking water of 4-week-old male Sprague-Dawley rats (˜200 g) for 2 weeks prior to CCl4 administration • 2) Induction phase: hepatic severe fibrosis was induced by repeated oral tetrachlorure (CCl4) administrations (twice a week, increasing doses from 0.10 to 0.85 ml/kg, twice weekly) for 10 or 15 weeks, with the same protocol as the protocol described in example 8. • 3) Treatment phase: after 15 weeks of CCl4 administrations, gavage was stopped one week before LPS administration. […] A last dose (50 mg/kg) was administered 30 minutes just before ACLF induction. • 4) ACLF induction: LPS was administrated i.p. at 0.03 mg/kg.
# LPS solution (Escherichia coli O111:64, Sigma-Aldrich, Germany) was prepared under a microbiological safety cabinet and was dissolved in phosphate buffer saline (PBS) at 15 μg/mL, aliquoted and frozen until the day of experiment. LPS was administered at 2 m L/kg to the rats.
# 38 male Sprague-Dawley rats (Janvier Labs, France) have been allocated to this study. Animals had ad libitum access to water and chow diet (ref E15000-04, Ssniff, Germany) all along the study. After 9 weeks of CCl4 administration, animals were randomly allocated to 2 groups according to ammonia and albumin plasmatic levels (in order to have similar means in the two groups).
# ACLF was evaluated, at the end of the study, by biochemical analyses of hepatic and renal injury or function biomarkers.
# At the end of the study, blood was collected by sublingual vein puncture under light isoflurane anesthesia and transferred to ethylenediamine tetra-acetic acid (EDTA), serum-gel, and lithium heparin tubes. EDTA and lithium heparin tubes containing blood were rapidly centrifuged and the plasma fraction was collected. Plasma aliquot of heparin lithium were snap frozen in liquid nitrogen and stored at −80° C., EDTA-plasma aliquots were stored at −20° C. and serum-gel tubes were kept at room temperature for 30 minutes, centrifuged and stored at −20° C.
# Experimental results are expressed as mean±standard deviation and plotted as bar graphs. Comparison between groups was tested using a Student T test for all variables that follows a normal distribution (#: p<0.05; ##: p<0.01; ###: p<0.001). A Welsh test was applied in case of different variances between groups (3a: p<0.05; cm: p<0.01; man: p<0.001). A log-transformation was applied for plasma ALT and AST in all samples to obtain a normal data distribution. For other non-normally distributed variables, a non-parametric Mann-Whitney test was applied ($: p<0.05; $$: p<0.01; $$$: p<0.001). Differences to the Ctrl week 10 (W10) group are notified, if not otherwise specified.
# [8] = tested on: cirrhotic rats after LPS injection (ACLF); experiment: ACLF model: LPS injection in TAA-cirrhotic rats; format: in vivo
# Experimental: Male Sprague Dawley rats (175-200 g) (Janvier Labs, France) received intraperitoneal injections of thioacetamide (TAA) 3 times a week at the dose of 150 mg/kg during the first week and then at 200 mg/kg during 14 weeks to induce cirrhosis. Rats were stratified to treatment groups (n=5 per group) based on mean plasma levels of fibrosis markers (alpha-2 macroglobulin and Metallopeptidase Inhibitor 1 (TIMP1)) and liver function tests (plasma total bile acid and albumin) obtained from sublingual blood sampling.
# After cirrhosis induction, rats received a single intraperitoneal injection of 0.05 mg/kg lipopolysaccharide (LPS from Escherichia coli O111:64, Sigma-Aldrich) to induce ACLF, one week after TAA administration was stopped. […] Plasma were obtained from sublingual blood sampling just before sacrifice.
# The concentration of total bile acids was measured using the appropriate Randox kit for Daytona Plus automate (Randox, cat #BI 3863). In the presence of Thio-NAD, the enzyme 3-alpha hydroxysteroid dehydrogenase (3-a HSD) converts bile acids to 3-keto steroids and Thio-NADH. The reaction is reversible and 3-a HSD could convert 3-keto steroids and Thio-NADH to bile acids and Thio-NAD. In the presence of excess NADH, the enzyme cycling occurs efficiently and the rate of formation of Thio-NADH is determined by measuring specific change of absorbance at 405 nm.
# [9] = tested on: TAA induced cirrhosis in rats; experiment: TAA-induced cirrhosis in rats: liver function and fibrosis; format: in vivo; settings: 16 weeks TAA
# [10] = NTZ 30 mg/kg/day in diet for last 4 weeks, versus TAA control
smiles,measurement,setting,value
"CC(=O)Oc1ccccc1C(=O)Nc1ncc([N+](=O)[O-])s1 [NTZ, nitazoxanide]",Plasma creatinine,[1],"restoring creatinine, urea and cystatin C levels to the levels of the olive oil controls"
same,Plasma cystatin C,[1],"restoring creatinine, urea and cystatin C levels to the levels of the olive oil controls"
same,Plasma urea,[1],"restoring creatinine, urea and cystatin C levels to the levels of the olive oil controls"
same,Induction of GluI expression,[2],1.6 fold
same,"Brain water (brain edema, % of water contained in brain)",[3],remarkably reduced
same,Plasma AST,[4],greatly reduced AST to a level similar to that with NAC
same,Mortality rate (dead cell protease activity),[5],reduced the mortality rate in a dose-dependent manner
same,Serum cystatin C,[6],"drastically reduced cystatin C, almost to the level of healthy controls"
same,Survival 24 h after LPS injection,"[7]; rats, 15 weeks CCl4 + LPS 0.03 mg/kg i.p., NTZ 50 mg/kg BID 3 days, same in vehicle group",60%
same,Reduction of serum IFNγ,"[7]; rats, CCl4 15 weeks and LPS, p=0.04",56%
same,Mortality over 24 hours,"[7]; rats, CCl4 + LPS, NTZ 50 mg/kg BID 3 days, same in vehicle group (4/10 rats)",40%
same,Change of plasma urea,"[7]; surviving rats 24 hours post-LPS, LPS-induced renal impairment, p=0.002",−92%
same,Change of plasma creatinine,"[7]; surviving rats 24 hours post-LPS, LPS-induced renal impairment, p=0.009",−102%
same,Change of plasma cystatin C,"[7]; surviving rats 24 hours post-LPS, LPS-induced renal impairment, p=0.02",−166%
same,Reduction of plasma AST,"[7]; surviving rats 24 hours post-LPS, NTZ versus vehicle, p=0.005",87%
same,Reduction of plasma ALT,"[7]; surviving rats 24 hours post-LPS, NTZ versus vehicle, p=0.007",80%
same,Reduction of total bilirubin,"[7]; surviving rats 24 hours post-LPS, plasma, p=0.02",80%
same,Restoration of albumin production,"[7]; surviving rats 24 hours post-LPS, plasma, p=0.04",95%
same,Plasma GGT level,"[7]; surviving rats 24 hours post-LPS, LPS vehicle 11.2 U/I",< 6.15 U/I
same,Circulating (plasma total) bile acids level,"[8]; TAA-cirrhotic rats after ACLF induction by LPS, versus vehicle",reduced
same,Delay of time to death,"[8]; TAA-cirrhotic rats, LPS 0.05 mg/kg i.p., NTZ oral gavage 50 mg/kg/day BID 3 days plus last dose 30 minutes before LPS",1 h
same,Collagen proportionate area,"[9]; NTZ 30 mg/kg/day for last 4 weeks, TAA control 7.74±0.38%, p=0.77",7.53±0.64%
same,Plasma albumin,[9]; [10],rescued
same,Plasma total bilirubin,[9]; [10],drastically decreased
